The source of these data is patent publication US5654179A, “Nucleic acid preparation methods” (HRI Research, Inc., priority 1994, dated 1997).

Where a name gives a salt, the structure may show the parent alone. Read-outs that look alike come from different tables or passages of the source.

The test system of data set [1] is Taq polymerase. The settings on record: cited from earlier work; for inhibitory concentration in PCR: final concentration.
Data set [2] has as its system Taq polymerase. The data set is classed as biochemical. Further details: key to Effect of cofactors on serum albumin: BSA / Effect of cofactors on transferrin: Bovine Transferrin: The presence of product bands ("+") indicated that the cofactor was, in conjunction with transferrin or serum albumin, able to overcome inhibition. The procedure:
(§1) Generally, PCR was carried out using 175-200 μM dNTPS (deoxyribonucleoside 5'-triphosphates) and 0.5 to 1.0 μM primers. Five units/100 μl of Taq polymerase were used. PCR reactions were overlaid with 30-100 μl light mineral oil. A typical PCR cycle for HIV amplification using a Perkin-Elmer Cetus DNA Thermal Cycler (Part No. N8010150) was: denaturation at 95° C. for 30 seconds; annealing at 55° C. for 30 seconds; and extension at 72° C. for 1 minute. PCR cycles were normally carried out in this manner for 35 cycles followed by 7 minutes at 72° C.
In some instances below, amplification of human histocompatibility (HLA) Class II genes was performed using primer pair GH26 (SEQ ID NO:2) and GH27 (SEQ ID NO:3) and human placental DNA to produce a 242-mer product (SEQ ID NO: 4). These primers and other primers are described in PCR Protocols: A Guide To Methods and Applications, Innis, M. A. et al. eds., pp. 261-271 (1990)).
Whole blood was prepared according to Mode III (see FIG. 1). Whole blood samples (100 μl) were lysed with protease K (0.5 mg/ml, 55° C. for 1 hour). The enzyme was inactivated by heating (95°-100°C., 10 minutes). Four sets of reactions were then set up involving the addition of interfering reagent to the protease lysate: 1) transferrin with 10 mM sodium bicarbonate; 2) transferrin with 20 mM sodium bicarbonate; 3) serum albumin with 10 mM sodium bicarbonate; and 4) serum albumin with no cofactor. These reaction were performed at room temperature for thirty minutes using a concentration range for transferrin and serum albumin (10, 25, 50, 75, 100, 150, 200 and 250 μg per 20 μl PCR rxn). PCR was then set up using the primer pair GH26/GH27 to produce a 242-mer product (see above). Two standard control reactions were run in separate tubes: i) a no nucleic acid target control; and 2) a positive control (human placental DNA). Four additional control lanes were run: 1) no inhibitor treatment (two lanes); 2) 10 mM sodium bicarbonate only (one lane); and 3) 50 μg transferrin only (one lane); and 4) transferrin with 10 mM sodium bicarbonate (two lanes). PCR was carried out for 35 cycles. The PCR products were thereafter electrophoresed (agarose) and visualized with ethidium bromide staining. The two above-named control reactions were electrophoresed in lanes 9 and 10 of FIG. 16A, respectively, as well as lanes 17 and 18 of FIG. 16B, respectively. In FIG. 16C, the positive control is in lane 1 and the negative control is in lane 2.
Whole blood was prepared according to Mode III (see FIG. 1). Whole blood samples (20 μl) were lysed with protease K (0.5 mg/ml, 55° C. for 1 hour). The enzyme was inactivated by heating (95°-100° C., 10 minutes). Reactions were then set up involving the addition of bovine transferrin or serum albumin with various cofactors, including bicarbonate ion, azide ion, thiocyanate ion, cyanate ion, oxalate ion, malonate ion, glycinate ion, and thioglycolate ion. These reaction were performed at room temperature for thirty minutes. PCR was then set up using the using primer pair GH26/GH27 to produce a 242-mer product (see above). PCR was carried out for 35 cycles. The PCR products were thereafter electrophoresed (agarose) and visualized with ethidium bromide staining.

Data set [3] relates to Taq polymerase. In words: PCR inhibition, SK38/39 system, 115-mer product on ethidium bromide gel or autoradiograph. In kind it is biochemical. The procedure:
as §1
In other cases, amplification of HIV sequences was performed using primer pair SK-38 (SEQ ID NO:5) and SK-39 (SEQ ID NO:6) and 115-mer (SEQ ID NO:7) as target to produce a 115-mer product.
Where agarose gel electrophoresis was used, the PCR products were fractionated by electrophoresis through a 3% Nusieve/1% agarose gel in TBE buffer. Electrophoresis was typically carried out in a constant voltage of 8-10 V/cm. Following agarose gel electrophoresis, individual bands were, in most cases, visualized by ethidium bromide staining. This involved staining the agarose gel with 1 μg/ml ethidium bromide in TBE for 30 minutes followed by destaining the agarose gel with TBE for 30 minutes.
The chemical reaction was performed as follows. Two aliquots (30 mg/aliquot) of sodium borohydride (NaBH4) were added at ten minute intervals to 1 ml of 200 μM hematin (Sigma) in 1M Tris (pH 8.0) under argon in the dark. The pH was adjusted to 6.0 between additions. At the end of the reaction (20 minutes) the pH was adjusted to 1.0 and then neutralized to pH 7.0. Six aliquots (5 μl) of the product of the reaction corresponding to different amounts of reacted hematin (37.5 μM, 7.5 μM, 1.5 μM, 0.3 μM, 0.06 μM, 0.012 μM) were added to standard (20 μl) PCR reactions in different tubes using the SK38/39 system (see above). Three standard control reactions were run in separate tubes: i) a no nucleic acid target control; ii) a no primer control; and iii) a positive control (no hematin). In addition, unreacted hematin was added to four different tubes in different amounts (50 μM, 5 μM, 0.5 μM, and 0.05 μM). PCR was carried out for 30 cycles. The PCR products were thereafter electrophoresed (agarose) and visualized with ethidium bromide staining (FIG. 2A, lanes 1-13). The three above-named control reactions were electrophoresed in lanes 1, 2 and 3, respectively. […] The unreacted hematin tubes (lanes 4-7) show no product until hematin is present at a very low concentration (0.05 μM, lane 7), at which point product is evident. […] Indeed, product is evident where 1.5 μM reacted hematin or less was present. […] A score (i.e., % maximum intensity of a positive control) was given to each band. An OD unit of 1.0 corresponds to 100% of maximum intensity. After examination of a plot of the estimated OD units to the concentration of hematin (expressed in the log scale) in these PCR reactions, it is clear that approximately a thirty-fold concentration difference was achieved (reacted to unreacted).
The photochemical reaction was performed as follows. Stock biliverdin (Sigma, 5 mM) was diluted in solution (50 mM Tris pH 7.8) to a final concentration of 200 μM. Two aliquots (300 μl) were then made. One aliquot was left unreacted. The other aliquot was exposed to ultraviolet radiation from an HRI-100 for 16 hours using the industry standard, F8T5BL hot cathode dual bipin lamps. Thereafter, both the unirradiated and irradiated materials were added (5 μl) to standard (20 μl) PCR reactions in different tubes using the SK38/39 system (see above) and 10^9 copies of 115-mer target. Three standard control reactions were run in separate tubes: i) a no nucleic acid target control; ii) a positive control (no biliverdin); and iii) a no Taq control. PCR was carried out for thirty (30) cycles. The PCR products were thereafter electrophoresed (agarose) and visualized with ethidium bromide staining (FIG. 3A, lanes 1-5). […]

The nature of data set [4]: Spectroscopic analysis of photochemical treatment (300-700 nm scan). In kind it is physicochemical. The procedure:
In this case 0.5 ml of untreated biliverdin in solution (diluted in 50 mM Tris pH 7.8) to a final concentration corresponding to Apeak =0.7) was scanned using a Beckman Spectrophotometer Model DU-50 between 300 and 700 nm. Photochemically treated (1.5 hours and 16 hours of irradiation) biliverdin was similarly diluted and scanned. […] This corresponds to lane 5 in FIG. 3A where no PCR inhibition was observed.
In this case 0.5 ml of untreated bilirubin in solution (diluted in 50 mM Tris, pH 7.8 to a final concentration corresponding to Apeak =0.8) was scanned using a Beckman Spectrophotometer Model DU-50 between 300 and 700 nm. Photochemically treated (20 minutes, 60 minutes and 2.5 hours of irradiation) bilirubin was similarly diluted and scanned. […] With just 20 minutes of irradiation, this peak is reduced; with just 60 minutes of irradiation, this peak is weak; with 2.5 hours, it is eliminated. The 2.5 hour treatment corresponds to lane 8 in FIG. 4A where no PCR inhibition was observed.

The subject of data set [5] is DNA ligase from mouse erythroleukemia (MEL) cells. The settings on record: incubation with hemoglobin; cited from earlier work.
Setting [6] is: hematin or protoporphyrin only, 500 μM stock.

Take `[Fe+2]` [Fe++]: in data set [1], the “inhibition of PCR / Taq polymerase” value is listed as “inhibit PCR”.

Consider `[Fe+3]` [Fe^+++], for which the “inhibition of PCR / Taq polymerase” value in data set [1] was “inhibit PCR”.

As to `[N-]=[N+]=[N-]` [Sodium Azide (NaN3), Sodium Azide], the “Effect of cofactors on serum albumin: BSA” value (“Effect of cofactors … BSA” for short) in data set [2] (cofactor with BSA) was “+”.

In the case of `O=C(O)O` [Sodium Bicarbonate (NaHCO3), Sodium Bicarbonate], in data set [2], the “Effect of cofactors … BSA” value was “+” and the “Effect of cofactors on transferrin: Bovine Transferrin” value (“Effect of cofactors on transferrin” for short) is “+”.

For the compound `N#CO` [Sodium Cyanate (NaOCN), Sodium Cyanate], in data set [2], the “Effect of cofactors … BSA” value is “+” and the “Effect of cofactors on transferrin” value is reported as “+”.

As for `NCC(=O)O` [Sodium Glycinate (NaO2 CH2 NH2), Sodium Glycinate], in data set [2], the “Effect of cofactors … BSA” value is given as “+” and the “Effect of cofactors on transferrin” value is on record as “+”.

As for `O=C(O)CC(=O)O` [Sodium Malonate (NaO2 CCH2 CO2 Na), Sodium Malonate], the “Effect of cofactors … BSA” value in data set [2] is “+”.

With `O=C(O)C(=O)O` [Sodium Oxalate (NaO2 CCO2 Na), Sodium Oxalate], the “Effect of cofactors … BSA” value in data set [2] is on record as “+”.

For `N#CS` [Sodium Thiocyanate (NaSCN), Sodium Thiocyanate], in data set [2], the “Effect of cofactors … BSA” value was “+” and the “Effect of cofactors on transferrin” value is “+”.

Regarding `O=C(O)CS` [Sodium Thioglycolate (NaO2 CCH2 SH), Sodium Thioglycolate], in data set [2], the “Effect of cofactors … BSA” value is recorded as “+” and the “Effect of cofactors on transferrin” value is recorded as “+”.

Regarding `C=CC1=C(C)/C(=C/c2[nH]c(Cc3[nH]c(/C=C4\NC(=O)C(C)=C4C=C)c(C)c3CCC(=O)O)c(CCC(=O)O)c2C)NC1=O` [bilirubin], the PCR product entry in data set [3] (400 μM bilirubin, 2.5 hrs irradiation) is on record as “product is visible”; in data set [3] (800 μM bilirubin, 3.5 hrs irradiation) it was “product is visible”; in data set [3] (2 mM bilirubin, 4 hrs irradiation), “Product is not visible”. The PCR inhibition result in data set [3] (unreacted bilirubin, 400 μM, 800 μM and 2 mM) is “completely inhibited”. For the same compound, the “absorbance peak at approximately 450 nm after irradiation” value is “reduced” in data set [4] (20 minutes of irradiation), “weak” in data set [4] (60 minutes of irradiation) and “eliminated” in data set [4] (2.5 hours of irradiation).

With `C=CC1=C(C)/C(=C/C2=NC(=C\c3[nH]c(/C=C4\NC(=O)C(C)=C4C=C)c(C)c3CCC(=O)O)/C(CCC(=O)O)=C2C)NC1=O` [biliverdin], the PCR product entry in data set [3] (biliverdin photochemically treated 16 hrs) is listed as “product is visible”. The PCR inhibition entry in data set [3] (biliverdin unirradiated, 5 μl of 200 μM in 20 μl PCR) is “completely inhibited”. Further, the figures for the “absorbance peak at approximately 450 nm after irradiation” value in data set [4] (1.5 hours of irradiation) and in data set [4] (16 hours of irradiation) were “very weak” and “eliminated completely”, respectively.

As to `O=C(O)O` [cofactor, sodium bicarbonate], the PCR product result in data set [2] is reported as “No product is visible”.

For `C=CC1=C(C)c2cc3[n-]c(cc4[n-]c(cc5nc(cc1n2)C(C)=C5C=C)c(C)c4CCC(=O)O)c(CCC(=O)O)c3C.O.[Fe+2]` [hematin], in data set [3] (setting [6]), the PCR inhibition entry is reported as “completely inhibited”. In addition, in data set [3] (sodium borohydride reduction, visual band intensity), the “concentration difference (reacted to unreacted) in PCR inhibition” value is given as “thirty”. The “concentration at which PCR product is evident” value in data set [3] (unreacted hematin, no product at 50, 5, 0.5 μM) came to 0.05 µM. Moreover, in data set [1], the “inhibition of PCR / Taq polymerase” value is “potent inhibitors of Taq polymerase” and the “inhibitory concentration in PCR” value is no less than 0.8 µM.

For the compound `C=CC1=C(C)c2cc3[n-]c(cc4[n-]c(cc5nc(cc1n2)C(C)=C5C=C)c(C)c4CCC(=O)O)c(CCC(=O)O)c3C.[Fe+2]` [heme], in data set [1], the “inhibitory concentration in PCR” value was 0.8 µM.

Regarding `C=CC1=C(C)c2cc3[nH]c(cc4nc(cc5[nH]c(cc1n2)c(C)c5CCC(=O)O)C(CCC(=O)O)=C4C)c(C)c3C=C` [protoporphyrin], the PCR inhibition entry in data set [3] (setting [6]) was “completely inhibited”. Also, in data set [1], the “inhibitory concentration in PCR” value is 20 µM.

For the compound hemoglobin, the “inhibition of DNA ligase from MEL cells” value in data set [5] is “not inhibitory”.

As for serum albumin, the PCR product entry is listed as “weak product band” in data set [2] (serum albumin 25 μg with cofactor (lane 9)), “No product is visible” in data set [2] (serum albumin 10 to 250 μg without cofactor) and “strong product bands” in data set [2] (serum albumin higher concentrations with cofactor (lanes 10-16)).
